Results: paper PMC8269107, “Lipidation of Temporin-1CEb Derivatives as a Tool for Activity Improvement, Pros and Cons of the Approach” (International Journal of Molecular Sciences, 2021)
Converted amounts (≈) assume the structure as drawn. Where a SMILES comes first, the peptide text is derived from it. [ ]: non-standard residue; d: D form. The star is where a group is joined. Palmitoyl = CCCCCCCCCCCCCCCC(=O)*; Lauroyl = CCCCCCCCCCCC(=O)*; Pentanoyl = CCCCC(=O)*; AEEA = NCCOCCOCC(=O)O; βAla = NCCC(=O)O

Legend:
[1] = test system: P. aeruginosa PCM 499; test: MIC, broth microdilution; type: cell-based, Pseudomonas aeruginosa; settings: P. aeruginosa PCM 499, 24 h
From the text: (§1) Escherichia coli (PCM 2057 = ATCC 25922), Staphylococcus aureus (PCM 2054 = ATCC 25923), Staphylococcus epidermidis (PCM 2118 = ATCC 14990), Bacillus subtilis (PCM 2224 = ATCC 9799), Bacillus cereus (PCM 482 = ATCC 10702) and Pseudomonas aeruginosa (PCM 499 = ATCC 10145) were obtained from the Polish Collection of Microorganisms. Fungi strains Candida albicans (CCM 8186 = CNTC 49/64), Candida glabrata (CCM 8270 = ATCC 90030), Candida parapsilosis (CCM 8260 = ATCC 22019) and Candida krusei (CCM 8271 = ATCC 6258) were acquired from the Czech Collection of Microorganisms. S. aureus USA300 (wild type strain), the reference strain of Klebsiella pneumoniae (ATCC 13883) and clinical isolates of Pseudomonas aeruginosa (PA1, PA2) collected from nonrelated patients admitted to the Stefan Zeromski Specialist Municipal Hospital in Krakow (Poland) were kindly provided by the research group of the Department of Microbiology, Faculty of Biochemistry, Biophysics and Biotechnology, Jagiellonian University, Krakow, Poland.
(§2) Luria-Bertani broth (LB) and Sabouraud Dextrose broth (SB) (Biocorp, Poland) were used for cultivation of bacteria and fungi strains, respectively. The antimicrobial activity of the peptides were analyzed through determination of MIC (minimal inhibitory concentration) parameters according to Clinical and Laboratory Standards (CLSI) guidelines developed for aerobic bacteria and yeasts, respectively. Mueller-Hinton broth (MHB) was used as the working medium for all bacterial strains, while in the case of fungi, RPMI-1640 (with L-glutamine, without sodium bicarbonate) growth medium buffered with MOPS (morpholinepropanesulfonic acid) and supplemented with 2% glucose was used. Inoculum was prepared from freshly grown cultures of microorganisms at their exponential phase of growth. […] Plates were then incubated for 24 h at 37 °C in the case of bacteria and at 35 °C in the case of fungi. After that time, absorbance was read at 590 nm with a Perkin Elmer plate reader. Cultures without peptide were treated as positive control, while uninoculated media were defined as negative control. All measurements were run at least in triplicate.

[2] = test system: C.krusei CCM 8271; test: MIC, broth microdilution; type: cell-based, Candida krusei; settings: C.krusei CCM 8271, 24 h
From the text: as §1, §2

[3] = test system: S. aureus PCM 2054; test: MIC, broth microdilution; type: cell-based, Staphylococcus aureus; settings: S. aureus PCM 2054, standard Mueller-Hinton broth, 24 h
From the text: as §1, §2

[4] = test system: keratinocytes (HaCaT); test: Cytotoxicity, MTT assay; type: cell-based, human; settings: MTT, 24 h; for IC50: Keratinocytes (HaCaT); for effect on cell viability (in words): keratinocytes, 1 to 50 µg/mL
Protocol: (§3) Human dermal fibroblasts were obtained as previously reported from biopsies of healthy human skin of three donors undergoing a surgery. All procedures were approved by the Ethics Committee of Medicinal University of Gdansk (NKEBN/483/2011 and NKBBN/745/2019-2020). Immortalized human HaCaT keratinocytes (DKFZ Heidelberg, Germany) were obtained commercially.
(§4) Both types of cell lines were grown in Dulbecco′s Modified Eagle′s Medium (DMEM) (Sigma-Aldrich, Germany), containing […] of glucose, […] of L- glutamine, sodium pyruvate and sodium bicarbonate. Additionally, the medium was supplemented with 10% FCS (fetal calf serum, Sigma-Aldrich, Germany), 100 U/mL of penicillin and 100 μg/mL of streptomycin (Sigma-Aldrich, Germany). The cells were grown in standard culture dishes (BD, USA) in a humidified atmosphere with 5% CO2 at […], and the medium was changed every 2 days.
(§5) The fibroblasts and keratinocytes were seeded at density of 5500 cells per well into 96-well plates suspended in a medium supplemented with 10% FCS. After 24 h from seeding, the media were exchanged with serum- and antibiotic-free DMEM and tested peptides, dissolved in sterile water, which were added, yielding a final concentration ranging from 1 to 50 μg/mL. The cells were then incubated for the next 24 h. At the end of the experiment, the cells were treated with 20 μL of MTT (5 mg/mL in PBS). After 3 h of incubation in the presence of MTT dye, the DMEM medium was discarded and replaced with 6 mM HCl in isopropanol. When the purple crystals of formazan were fully solubilized, absorbance at 570 nm was read.

[5] = test system: primary fibroblasts; test: Cytotoxicity, MTT assay; type: cell-based, human; settings: MTT, 24 h; for effect on cell viability (in words): fibroblasts, 1 to 50 µg/mL; for IC50: primary Fibroblasts
Protocol: as §3, §4, §5

[6] = test system: S. aureus (PCM 2054) biofilm; test: Biofilm inhibition assay (MTT); type: cell-based, Staphylococcus aureus; settings: S. aureus biofilm development, 24 h post-inoculation
Protocol: In the case of bacteria, an overnight culture of S. aureus in Tryptic Soy Broth (TSB) supplemented with 2% glucose (TSB/+G) was used to prepare inoculum for the experiments. Briefly, 5 mL of 24 h culture was centrifuged at 5000× g, washed with sterile PBS and suspended in a fresh 2 × concentrated TSB/+G. In the case of yeasts, the overnight culture of C. albicans in Sabouraud dextrose broth (SB) was used for inoculum preparation. Similar to above, 5 mL of 24 h culture was centrifuged, washed with PBS and then suspended in sterile 2 × concentrated RPMI-1640 medium (with L-glutamine, without sodium bicarbonate) supplemented with 2% glucose (RPMI-1640/+G). In both cases, the cell concentration of the inoculum was about 1 × 10^7 cells per ml.
For the determination of the inhibitory concentration that reduced biofilm development by 50% (BIC50^, expressed in µg/mL), 100 µL inoculum in 2 × concentrated RPMI-1640/+G medium (in the case of C. albicans) or 2 x concentrated TSB/+G broth (in the case of S. aureus) was transferred to each well of 96-well plates containing 100 µL of serially diluted in water tested compounds. The final concentrations of the compounds were the same as those used in MIC determination studies. The 96-well plates were then incubated for 24 h at 37 °C and 35 °C in the case of bacteria and fungi, respectively. Viability of the microorganisms in the presence of the tested compounds was analyzed by means of MTT assay.
The reduction in biofilm viability was analyzed by means of MTT assay. Briefly, 20 μL of MTT solution (5 mg/mL in PBS) was added to prewashed wells with exchanged medium (180 μL of fresh medium) wells containing bacterial/yeast biofilms. Plates were then incubated in the dark for the next 3 h at 37 °C. After that time, the medium was replaced with 6 mM HCl in isopropanol and, when the reduced MTT was fully dissolved, the plates were read at 570 nm. Activity against fully developed 24 h old biofilm was described as biofilm eradication concentration (BEC50 expressed in µg/mL), which corresponded to the concentration of the compound able to reduce 50% of biofilm viability compared with the growth control.

[7] = test system: E. coli PCM 2057; test: MIC, broth microdilution; type: cell-based, Escherichia coli; settings: E. coli PCM 2057, 24 h
From the text: as §1, §2

[8] = test system: B. subtilis PCM 2224; test: MIC, broth microdilution; type: cell-based, Bacillus subtilis; settings: B. subtilis PCM 2224, 24 h
From the text: as §1, §2

SMILES: CCCCC(=O)NCCC(=O)N[C@@H](Cc1c[nH]cn1)C(=O)NCCOCCOCC(=O)N[C@H](C(=O)N[C@@H](CCCCN)C(=O)N[C@@H](CCCCN)C(=O)N[C@H](C(=O)N[C@@H](CC(C)C)C(=O)N[C@@H](CO)C(=O)N[C@@H](CCCCN)C(=O)N[C@H](C(=O)N[C@@H](CCCCN)C(=O)N[C@@H](CCCCN)C(=O)N[C@@H](CC(C)C)C(=O)N[C@@H](CC(C)C)C(N)=O)[C@@H](C)CC)[C@@H](C)CC)[C@@H](C)CC [C5-CAR-PEG-DK5] ({Pentanoyl-βAla}-H[AEEA]IKKILSKIKKLL-NH2)
- MIC100 [1]: >50 µg/mL
- MIC100 [2]: >50 µg/mL
- MIC100 [3]: >50 µg/mL
- IC50 [4]: >50 µg/mL
- effect on cell viability (in words) [4]: neutral or even pro-proliferative
- effect on cell viability (in words) [5]: neutral or even pro-proliferative
- IC50 [5]: >50 µg/mL
- BIC50 [6]: >50 µg/mL
- MIC100 [7]: >50 µg/mL
- MIC100 [8]: 6.25 µg/mL (≈ 3.36 µM)

SMILES: CCCCCCCCCCCC(=O)N[C@H](C(=O)N[C@@H](CCCCN)C(=O)N[C@@H](CCCCN)C(=O)N[C@H](C(=O)N[C@@H](CC(C)C)C(=O)N[C@@H](CO)C(=O)N[C@@H](CCCCN)C(=O)N[C@H](C(=O)N[C@@H](CCCCN)C(=O)N[C@@H](CCCCN)C(=O)N[C@@H](CC(C)C)C(=O)N[C@@H](CC(C)C)C(N)=O)[C@@H](C)CC)[C@@H](C)CC)[C@@H](C)CC [Compound C12-DK5] (Lauroyl-IKKILSKIKKLL-NH2)
- MIC100 [1]: 12.5 µg/mL (≈ 7.78 µM)
- MIC100 [2]: 3.13 µg/mL (≈ 1.95 µM)
- MIC100 [3]: 6.25 µg/mL (≈ 3.89 µM)
- IC50 [4]: 1 µg/mL (≈ 0.623 µM)
- IC50 [5]: 7 µg/mL (≈ 4.36 µM)
- BIC50 [6]: 6.25 µg/mL
- MIC100 [7]: 12.5 µg/mL (≈ 7.78 µM)
- MIC100 [8]: 0.78 µg/mL (≈ 0.486 µM)

SMILES: CCCCCCCCCCCCCCCC(=O)N[C@H](C(=O)N[C@@H](CCCCN)C(=O)N[C@@H](CCCCN)C(=O)N[C@H](C(=O)N[C@@H](CC(C)C)C(=O)N[C@@H](CO)C(=O)N[C@@H](CCCCN)C(=O)N[C@H](C(=O)N[C@@H](CCCCN)C(=O)N[C@@H](CCCCN)C(=O)N[C@@H](CC(C)C)C(=O)N[C@@H](CC(C)C)C(N)=O)[C@@H](C)CC)[C@@H](C)CC)[C@@H](C)CC [Compound C16-DK5] (Palmitoyl-IKKILSKIKKLL-NH2)
- MIC100 [1]: >50 µg/mL
- MIC100 [2]: 6.25 µg/mL (≈ 3.76 µM)
- MIC100 [3]: >50 µg/mL
- IC50 [4]: 5 µg/mL (≈ 3.01 µM)
- IC50 [5]: 7 µg/mL (≈ 4.21 µM)
- BIC50 [6]: 6.25 µg/mL
- MIC100 [7]: >50 µg/mL
- MIC100 [8]: 3.13 µg/mL (≈ 1.88 µM)

SMILES: CCCCC(=O)N[C@H](C(=O)N[C@@H](CCCCN)C(=O)N[C@@H](CCCCN)C(=O)N[C@H](C(=O)N[C@@H](CC(C)C)C(=O)N[C@@H](CO)C(=O)N[C@@H](CCCCN)C(=O)N[C@H](C(=O)N[C@@H](CCCCN)C(=O)N[C@@H](CCCCN)C(=O)N[C@@H](CC(C)C)C(=O)N[C@@H](CC(C)C)C(N)=O)[C@@H](C)CC)[C@@H](C)CC)[C@@H](C)CC [Compound C5-DK5] (Pentanoyl-IKKILSKIKKLL-NH2)
- MIC100 [1]: 25 µg/mL (≈ 16.6 µM)
- MIC100 [2]: 25 µg/mL (≈ 16.6 µM)
- MIC100 [3]: 12.5 µg/mL (≈ 8.29 µM)
- IC50 [4]: 35 µg/mL (≈ 23.2 µM)
- effect on cell viability (in words) [4]: moderately toxic
- effect on cell viability (in words) [5]: moderately toxic
- IC50 [5]: 20 µg/mL (≈ 13.3 µM)
- BIC50 [6]: 6.25 µg/mL
- MIC100 [7]: 3.13 µg/mL (≈ 2.08 µM)
- MIC100 [8]: 0.78 µg/mL (≈ 0.517 µM)

SMILES: CCCCCCCCCCCC(=O)NCCC(=O)N[C@@H](Cc1c[nH]cn1)C(=O)NCCOCCOCC(=O)N[C@H](C(=O)N[C@@H](CCCCN)C(=O)N[C@@H](CCCCN)C(=O)N[C@H](C(=O)N[C@@H](CC(C)C)C(=O)N[C@@H](CO)C(=O)N[C@@H](CCCCN)C(=O)N[C@H](C(=O)N[C@@H](CCCCN)C(=O)N[C@@H](CCCCN)C(=O)N[C@@H](CC(C)C)C(=O)N[C@@H](CC(C)C)C(N)=O)[C@@H](C)CC)[C@@H](C)CC)[C@@H](C)CC [C12-CAR-PEG-DK5] ({Lauroyl-βAla}-H[AEEA]IKKILSKIKKLL-NH2)
- MIC100 [1]: 12.5 µg/mL (≈ 6.38 µM)
- MIC100 [2]: 12.5 µg/mL (≈ 6.38 µM)
- MIC100 [3]: 6.25 µg/mL (≈ 3.19 µM)
- IC50 [4]: 10 µg/mL (≈ 5.1 µM)
- IC50 [5]: 12.5 µg/mL (≈ 6.38 µM)
- MIC100 [7]: 3.13 µg/mL (≈ 1.6 µM)
- MIC100 [8]: 3.13 µg/mL (≈ 1.6 µM)
